Values after ≈ are worked out from the molar mass of the structure shown. Active and inactive are the calls of the source. No cut-off for these calls is given here.
Assays:
[1] = Cytotoxicity against african green monkey TF-104 cells after 72 hrs by MTT assay; format: cell-based; conditions: chlorocebus aethiops
Bovine rotavirus [2] = experiment: Antiviral activity against KJ56-1 Bovine rotavirus G8P[7] infected in african green monkey TF-104 cells assessed as inhibition of virus-induced cytopathic effect after 72 hrs; format: functional, cell-based; conditions: Rotavirus A, TF-104, 72 h
[3] = Selectivity index, ratio of CC50 for african green monkey TF-104 cells to EC50 for cytopathic inhibition activity against KJ56-1 Bovine rotavirus G8P[7]; format: toxicity, cell-based; conditions: read-out: Ratio CC50/EC50
Porcine rotavirus [4] = experiment: Antiviral activity against KJ56-1 Porcine rotavirus G5P[7] infected in african green monkey TF-104 cells assessed as inhibition of viral replication at 30 uM after 24 hrs by immunofluorescence assay; format: functional, cell-based
Bovine rotavirus [5] = experiment: Antiviral activity against KJ56-1 Bovine rotavirus G8P[7] infected in african green monkey TF-104 cells assessed as inhibition of viral replication at 30 uM after 24 hrs by immunofluorescence assay; format: functional, cell-based
Porcine rotavirus [6] = experiment: Antiviral activity against KJ56-1 Porcine rotavirus G5P[7] in human RBC assessed as inhibition of virus-induced hemagglutinination after 1 hr; format: functional
Bovine rotavirus [7] = experiment: Antiviral activity against KJ56-1 Bovine rotavirus G8P[7] infected in african green monkey TF-104 cells after 72 hrs by virucidal assay; format: functional, cell-based; conditions: Rotavirus A, TF-104, 72 h
[8] = Selectivity index, ratio of CC50 for african green monkey TF-104 cells to EC50 for KJ56-1 Bovine rotavirus G8P[7] by virucidal assay; format: toxicity, cell-based; conditions: read-out: Ratio CC50/EC50
Porcine rotavirus [9] = experiment: Antiviral activity against KJ56-1 Porcine rotavirus G5P[7] infected in african green monkey TF-104 cells after 72 hrs by virucidal assay; format: functional, cell-based; conditions: Rotavirus A, TF-104, 72 h
[10] = Selectivity index, ratio of CC50 for african green monkey TF-104 cells to EC50 for virucidal activity against KJ56-1 Povine rotavirus […]; format: toxicity, cell-based; conditions: read-out: Ratio CC50/EC50
Porcine rotavirus [11] = experiment: Antiviral activity against KJ56-1 Porcine rotavirus G5P[7] infected in african green monkey TF-104 cells assessed as inhibition of virus-induced cytopathic effect after 72 hrs; format: functional, cell-based; conditions: TF-104, 72 h
[12] = Selectivity index, ratio of CC50 for african green monkey TF-104 cells to EC50 for cytopathic inhibition activity against KJ56-1 Povine rotavirus […]; format: toxicity, cell-based; conditions: read-out: Ratio CC50/EC50
Bovine rotavirus [13] = experiment: Antiviral activity against KJ56-1 Bovine rotavirus G8P[7] in human RBC assessed as inhibition of virus-induced hemagglutinination after 1 hr; format: functional; conditions: Rotavirus A
Bovine rotavirus [14] = experiment: Antiviral activity against KJ56-1 Bovine rotavirus G8P[7] infected in african green monkey TF-104 cells assessed as inhibition of viral mRNA synthesis at 40 to 50 uM after 18 hrs by RT-PCR analysis; format: functional, cell-based
Porcine rotavirus [15] = experiment: Antiviral activity against KJ56-1 Porcine rotavirus G5P[7] infected in african green monkey TF-104 cells assessed as inhibition of viral mRNA synthesis at 40 to 50 uM after 18 hrs by RT-PCR analysis; format: functional, cell-based

`O=c1c(-c2ccc(O)cc2)coc2cc(O)cc(O)c12` [GENISTEIN] gave a CC50 at 72 h [1] of 174 µM, an EC50 (Bovine rotavirus [2]) of 99.6 µM and a selectivity ratio [3] of 1.8.

With `COc1c(CC=C(C)C)c(O)cc2c1C[C@H](c1ccc(O)cc1O)CO2` [GLYASPERIN C] the inhibition (Porcine rotavirus [4]) was “Active”, the inhibition (Bovine rotavirus [5]) was “Active” and the MIC (Porcine rotavirus [6]) was 17.2 µM (≈ 6.13 µg/mL). It also gave a CC50 at 72 h [1] of 42.8 µM, an EC50 (Bovine rotavirus [7]) of 14.7 µM and a selectivity ratio [8] of 2.9. It also gave an EC50 (Porcine rotavirus [9]) of 18.7 µM, a selectivity ratio [10] of 2.3 and an EC50 (Bovine rotavirus [2]) of 12 µM. For the same compound, the selectivity ratio [3] was 3.6, the EC50 (Porcine rotavirus [11]) was 12.1 µM and the selectivity ratio [12] was 3.6. For the same compound, the MIC (Bovine rotavirus [13]) was 17.2 µM (≈ 6.13 µg/mL), the inhibition (Bovine rotavirus [14]) was “Active” and the inhibition (Porcine rotavirus [15]) was “Active”.

In the case of `CC(C)=CCc1c(O)cc2oc(-c3ccc(O)cc3)c(O)c(=O)c2c1O` [LICOFLAVONOL], the inhibition (Porcine rotavirus [4]) is reported as “inactive”, the inhibition (Bovine rotavirus [5]) is reported as “Active” and the MIC (Porcine rotavirus [6]) is reported as 17.2 µM (≈ 6.09 µg/mL). For the same compound, the CC50 at 72 h [1] was 85.3 µM, the EC50 (Bovine rotavirus [7]) was 15.5 µM and the selectivity ratio [8] was 5.5. The EC50 (Porcine rotavirus [9]) was 36.8 µM, the selectivity ratio [10] was 2.3 and the EC50 (Bovine rotavirus [2]) was 25.9 µM. For the same compound, the selectivity ratio [3] was 3.3, the MIC (Bovine rotavirus [13]) was 17.2 µM (≈ 6.09 µg/mL) and the inhibition (Bovine rotavirus [14]) was “Active”. For the same compound, the inhibition (Porcine rotavirus [15]) was “Active”.

In the case of `COc1cc2c(c(OC)c1CC=C(C)C)C[C@H](c1ccc(O)cc1O)CO2` [GLYASPERIN D], the inhibition (Porcine rotavirus [4]) is reported as “inactive”, the inhibition (Bovine rotavirus [5]) is reported as “Active” and the MIC (Porcine rotavirus [6]) is reported as 17.2 µM (≈ 6.37 µg/mL). It also gave a CC50 at 72 h [1] of 68.1 µM, an EC50 (Bovine rotavirus [7]) of 17.6 µM and a selectivity ratio [8] of 5.7. It also gave an EC50 (Bovine rotavirus [2]) of 42 µM, a selectivity ratio [3] of 1.6 and an MIC (Bovine rotavirus [13]) of 17.2 µM (≈ 6.37 µg/mL). The inhibition (Bovine rotavirus [14]) was “Active” and the inhibition (Porcine rotavirus [15]) was “Active”.

`COc1c(CC=C(C)C)c(O)cc2oc(-c3ccc(O)cc3O)cc12` [LICOCOUMARONE] gave an MIC (Porcine rotavirus [6]) of 17.2 µM (≈ 5.85 µg/mL), a CC50 at 72 h [1] of 54.5 µM and an EC50 (Bovine rotavirus [7]) of 37.8 µM. For the same compound, the selectivity ratio [8] was 1.4, the EC50 (Porcine rotavirus [9]) was 26.1 µM and the selectivity ratio [10] was 2.1. It also gave an EC50 (Bovine rotavirus [2]) of 22.3 µM, a selectivity ratio [3] of 2.5 and an EC50 (Porcine rotavirus [11]) of 43.6 µM. The selectivity ratio [12] was 1.3, the MIC (Bovine rotavirus [13]) was 17.2 µM (≈ 5.85 µg/mL) and the inhibition (Bovine rotavirus [14]) was “Active”. The inhibition (Porcine rotavirus [15]) was “Active”.

In the case of `COc1cc(O)ccc1C(=O)/C=C/c1ccc(O)cc1`, the MIC (Porcine rotavirus [6]) is reported as “inactive”, the CC50 at 72 h [1] is reported as > 133 µM and the EC50 (Porcine rotavirus [9]) is reported as 69.5 µM. The EC50 (Bovine rotavirus [2]) was 41.8 µM, the selectivity ratio [3] was > 3.2 and the EC50 (Porcine rotavirus [11]) was 24 µM. For the same compound, the selectivity ratio [12] was 5.6, the MIC (Bovine rotavirus [13]) was 17.2 µM (≈ 4.65 µg/mL) and the inhibition (Bovine rotavirus [14]) was “Active”. For the same compound, the inhibition (Porcine rotavirus [15]) was “Active”.

For `COc1cc2oc(=O)c(-c3ccc(O)cc3O)cc2c(OC)c1CC=C(C)C` [GLYCYRIN], the MIC (Porcine rotavirus [6]) was 17.2 µM (≈ 6.58 µg/mL), the CC50 at 72 h [1] was > 133 µM and the EC50 (Bovine rotavirus [7]) was 88.1 µM. For the same compound, the selectivity ratio [8] was > 1.5, the EC50 (Bovine rotavirus [2]) was > 100 µM and the MIC (Bovine rotavirus [13]) was 17.2 µM (≈ 6.58 µg/mL).
